Patent US20030166707A1, “Microsphaeropsin B as novel antibacterial agent, process for producing the same and pharmaceutical composition containing thereof” (priority 2001, published 2003)
Values after ≈ are worked out from the molar mass of the structure shown. Where two headings read alike, the source gives them in different places.

How the values were obtained:
E. coli ATCC 25922 = test: MIC, standard microbroth dilution (NCCLS); type: cell-based; details: Escherichia coli, read-out: Antibacterial activity (MIC)
Procedure: (§1) The compounds of the present invention were tested for minimum inhibitory concentrations (MICs) against the bacteria listed in Table-1 according to the standard microbroth dilution method as described in a NCCLS document. The minimum inhibitory concentrations wer expressed in μg/ml. The test bacteria of 5×10^5 CFU/ml each were subjected to serial dilutions of the test material under aerobic conditions at 35° C. for 18 hours using Mueller Hinton broth. After incubation, the first concentration of wells to show a complete growth inhibition was considered as the MIC.

E. faecalis 2322 VRE = test: MIC, standard microbroth dilution (NCCLS); type: cell-based; details: Enterococcus faecalis, read-out: Antibacterial activity (MIC)
Procedure: as §1

E. faecalis 2353 VSE = test: MIC, standard microbroth dilution (NCCLS); type: cell-based; details: Enterococcus faecalis, read-out: Antibacterial activity (MIC)
Procedure: as §1

S. aureus ATCC 29213 = test: MIC, standard microbroth dilution (NCCLS); type: cell-based; details: Staphylococcus aureus, read-out: Antibacterial activity (MIC)
Procedure: as §1

S. aureus TN1152MRSA = test: MIC, standard microbroth dilution (NCCLS); type: cell-based; details: Staphylococcus aureus, read-out: Antibacterial activity (MIC)
Procedure: as §1

S. epdermidis ATCC1228 = test: MIC, standard microbroth dilution (NCCLS); type: cell-based; details: read-out: Antibacterial activity (MIC)
Procedure: as §1

[1] = Solubility characteristics of isolated Microsphaeropsin B; type: physicochemical
[2] = ATCC25922, E. coli ATCC 25922, 5×10^5 CFU/ml, Mueller Hinton broth, aerobic, 35° C., 18 hours
[3] = E. faecalis 2322 VRE, 5×10^5 CFU/ml, Mueller Hinton broth, aerobic, 35° C., 18 hours
[4] = E. faecalis 2353 VSE, 5×10^5 CFU/ml, Mueller Hinton broth, aerobic, 35° C., 18 hours
[5] = ATCC29213, S. aureus ATCC 29213, 5×10^5 CFU/ml, Mueller Hinton broth, aerobic, 35° C., 18 hours
[6] = S. aureus TN1152MRSA, 5×10^5 CFU/ml, Mueller Hinton broth, aerobic, 35° C., 18 hours
[7] = S. epdermidis ATCC1228, 5×10^5 CFU/ml, Mueller Hinton broth, aerobic, 35° C., 18 hours

MIC (E. coli ATCC 25922; [2])	MIC (E. faecalis 2322 VRE; [3])	MIC (E. faecalis 2353 VSE; [4])	MIC (S. aureus ATCC 29213; [5])	MIC (S. aureus TN1152MRSA; [6])	MIC (S. epdermidis ATCC1228; [7])	Behaviour on addition of water ([1]; dissolution in ethanol or dimethyl sulphoxide followed by addition of water)	Solubility ([1]; in 1M sodium hydroxide solution)	Solubility ([1]; in 5% sodium bicarbonate)	Solubility ([1]; in water)	Structure (SMILES)	MIC (E. coli ATCC 25922; ATCC25922, 18 h)	MIC (E. faecalis 2322 VRE; VRE, 18 h)	MIC (E. faecalis 2353 VSE; 2353VSE, 18 h)	MIC (S. aureus ATCC 29213; ATCC29213, 18 h)	MIC (S. aureus TN1152MRSA; TN1152MRSA, 18 h)	MIC (S. epdermidis ATCC1228; 18 h)
2 mg/L (≈ 5.72 µM)	32 mg/L (≈ 91.6 µM)	0.25 mg/L (≈ 0.715 µM)	0.062 mg/L (≈ 0.177 µM)	8 mg/L (≈ 22.9 µM)	16 mg/L (≈ 45.8 µM)					CC1(C)S[C@@H]2[C@H](NC(=O)[C@H](N)c3ccccc3)C(=O)N2[C@H]1C(=O)O [Ampicillin]						
> 32 mg/L	2 mg/L (≈ 5.01 µM)	1 mg/L (≈ 2.5 µM)	0.5 mg/L (≈ 1.25 µM)	0.5 mg/L (≈ 1.25 µM)	1 mg/L (≈ 2.5 µM)	immediate precipitate formation	insoluble	insoluble	insoluble	C/C=C/C=C/C1C=CC2CC(C)CCC2C1(C)C(=O)C1=C(O)C(C(C)O)NC1=O (stereo not shown) [Microsphaeropsin B]						
										CN[C@H](CC(C)C)C(=O)N[C@H]1C(=O)N[C@@H](CC(N)=O)C(=O)N[C@H]2C(=O)N[C@H]3C(=O)N[C@H](C(=O)N[C@H](C(=O)O)c4cc(O)cc(O)c4-c4cc3ccc4O)[C@H](O)c3ccc(c(Cl)c3)Oc3cc2cc(c3O[C@@H]2O[C@H](CO)[C@@H](O)[C@H](O)[C@H]2O[C@H]2C[C@](C)(N)[C@H](O)[C@H](C)O2)Oc2ccc(cc2Cl)[C@H]1O [Vancomycin]	> 32 mg/L	16 mg/L (≈ 11 µM)	0.25 mg/L (≈ 0.173 µM)	0.5 mg/L (≈ 0.345 µM)	0.25 mg/L (≈ 0.173 µM)	0.5 mg/L (≈ 0.345 µM)
